# Source: publication PMC3174134, “Lucanthone and Its Derivative Hycanthone Inhibit Apurinic Endonuclease-1 (APE1) by Direct Protein Binding” (PLoS ONE, 2011)
# pKd: −log10 of the molar value. Where two headings read alike, the source gives them in different places.
# Tests used:
# [1] = target: T1, APE1 (Homo sapiens, UniProt P27695); assay: APE1 expression and cleavage in U251 1-5 overexpressor cells pretreated with cycloheximide, Western blot; assay type: cell-based; conditions: for Cleavage of APE1 (25 kDa fragment): 10 µg/ml cycloheximide 4 h, then 25-100 µM drug 2 h
# Description: Total purified protein concentration was determined by the ratio of A280/A260. 250 ng of APE1 treated with lucanthone or hycanthone (0.05–100 µM) for 2 h at 37°C in final volume of 30 µl were mixed with an equal volume of gel loading buffer (0.001% bromophenol blue, 4% SDS, 10% 2-ME, 20% glycerol, and 125 mM Tris pH 6.8) and denatured at 95°C for 5 min. Total protein concentration in cell extracts was determined using the Bradford assay (BioRad, Hercules, CA) and 25 µg of total protein from soluble or insoluble cell fractions were mixed with an equal volume of gel loading buffer (0.001% bromophenol blue, 4% SDS, 10% 2-ME, 20% glycerol, and 125 mM Tris pH 6.8) and denatured at 95°C for 5 min. This mixture was separated by SDS-PAGE (4% stacking, 7.5% resolving gel) for 2–3 h at 40 mA on a BioRad MiniPROTEAN II Electrophoresis Cell. To detect proteins, proteins were transferred onto a trans-Blot nitrocellulose membrane (0.45 µm; BioRad) overnight at 4°C at 15 mA in standard Tris-Glycine buffer containing 20% ethanol. Membranes were probed using polyclonal anti-APE1 or polyclonal anti-©-tubulin at 1/1,000 dilution in TTBS (0.1% Tween 20 in TBS (pH 7.5)) with secondary, anti-rabbit HRP-conjugated antibody used at 1/30,000 dilution to detect APE1 and ©-tubulin protein control. Chemi-luminescence was developed using an ECL kit according to the manufacturer's instructions and detected by exposing the blot to HyperfilmECL for 30 s–3 min. (GE Healthcare Biosciences, Piscataway, NJ).
# Western blotting was carried out by 7.5% SDS-PAGE of cell extracts (20 µg total protein per lane) either from APE1 overexpresser clone 5 pretreated with 2.5–200 µM concentration of lucanthone/CRT0044876 or recombinant APE1 for 2 h at 37°C in presence of protease inhibitor cocktail (2 tablets (Roche, # 11836153001) containing mixture of several protease inhibitors with broad inhibitory specificity for serine, cysteine and metalloproteases in all systems, dissolved in 20 ml of APE1 buffer). […]
# [2] = target: T1, APE1; assay: Direct binding by surface plasmon resonance (BIACORE 2000), APE1 immobilized on CM5 chip; design: the full length APE1 protein was successfully expressed and purified; made in house; host or cells: E. coli BL21/DE3; conditions: for kd: full length APE1; for kon: pH 7.4, read-out: ka
# Description: APE1 (and its hydrophobic mutants) and lucanthone/hycanthone reaction stoichiometry was studied using surface plasmon resonance on a BIACORE 2000 apparatus (Biacore, GE Healthcare, Sweden) at the protein core facility in SUNYSB, to determine the affinity of the two drugs for APE1 (or NΔ40 APE1). APE1 and its mutants (10 µg) (RUmax values were 9000 RU units after immobilization) were immobilized on a CM5 chip by amine coupling (as per the manufacturer's instructions) and binding experiments were performed at 20°C in 10 mM HBS-EP buffer, pH 7.4. Lucanthone (or hycanthone) (20–700 µM) was injected as analyte over the sensor chip in HBS-EP buffer at 10 µl/min. The regeneration was achieved by 10 mM glycine-HCl, pH 3.0 between each analyte (drug) concentration.
# [3] = target: E.coli endonuclease IV (Nfo) (Escherichia coli, UniProt P0A6C1); assay: Circular dichroism of E.coli Nfo with lucanthone; conditions: 140 µM lucanthone, 37°C, 60 min
# [4] = test system: APE1 mutants F266A, F266C, F266A/W280A, D210N; assay: Circular dichroism of APE1 mutant proteins with lucanthone; design: species or system human; conditions: 140 µM lucanthone, 14 µM protein, 37°C, 60 min
# Description: (§1) APE1 and its mutant proteins (10 mg/ml), 50 µl (500 µg) (14 µM) in APE1 buffer (50 mM HEPES, pH 7.4, 150 mM KCl, 5 mM MgCl2), were mixed with lucanthone/hycanthone (1 mg/ml), 50 µl (50 µg), 140 µM and incubated at 37°C for 60 min and far UV-CD spectra were recorded at NSLS U11 beam line at BNL. Lucanthone and hycanthone were also scanned as drug controls. The scanning parameters used were a 0.001 cm path length quartz cell, scanning wavelengths from 260 to 170 nm, bandwidth of 0.5 nm, digital integration time of 1 s, time constant of 200 ms, step size of 1 nm, and sensitivity of 200 µV. The data were corrected with blank subtraction from APE1 buffer alone. The secondary structure for APE1 with or without lucanthone or hycanthone was analyzed using CDSSTR program DICHROWEB [38].
# [5] = target: T2, APE1 mutants F266A, F266C, F266A/W280A, D210N (Homo sapiens, UniProt P27695, F266A/W280A); assay: as above; conditions: 140 µM lucanthone, 14 µM protein, 37°C, 60 min
# T2 construct: made in house
# Description: as §1
# T1 sequence (P27695 whole entry, the tested form may be a part): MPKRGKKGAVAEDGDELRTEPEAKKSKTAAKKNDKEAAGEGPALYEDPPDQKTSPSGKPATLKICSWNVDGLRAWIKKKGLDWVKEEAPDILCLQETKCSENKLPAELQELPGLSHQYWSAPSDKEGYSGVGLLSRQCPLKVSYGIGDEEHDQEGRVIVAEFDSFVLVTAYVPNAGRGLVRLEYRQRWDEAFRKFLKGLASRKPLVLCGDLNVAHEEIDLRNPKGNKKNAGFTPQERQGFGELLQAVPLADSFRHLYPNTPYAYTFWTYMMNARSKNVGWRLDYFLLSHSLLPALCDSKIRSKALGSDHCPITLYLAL
# T2 sequence (P27695 2-318 F266A/W280A): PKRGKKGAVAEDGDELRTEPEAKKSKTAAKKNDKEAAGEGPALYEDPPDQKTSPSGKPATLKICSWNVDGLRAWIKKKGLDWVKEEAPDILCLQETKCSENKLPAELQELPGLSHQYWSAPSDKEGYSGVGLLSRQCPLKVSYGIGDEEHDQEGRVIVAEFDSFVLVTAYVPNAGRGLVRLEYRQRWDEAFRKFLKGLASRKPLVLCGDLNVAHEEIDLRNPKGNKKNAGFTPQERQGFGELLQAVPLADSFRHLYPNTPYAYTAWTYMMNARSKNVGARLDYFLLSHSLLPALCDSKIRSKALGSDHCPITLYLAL
compound,measurement,setting,value
CCN(CC)CCNc1ccc(CO)c2sc3ccccc3c(=O)c12 [hycanthone],Cleavage of APE1 (25 kDa fragment),[1],induce cleavage of APE1
same,APE1:drug stoichiometry,[2],~1
same,RUmax,[2],90 RU
same,pKd,"[2]; BIACORE, 20°C, HBS-EP pH 7.4, read-out: KD (affinity constant)",8.00
same,RUligand,[2]; Conc 22 µM,24 RU
same,RUligand,[2]; Conc 44 µM,45 RU
same,RUligand,[2]; Conc 88 µM,78 RU
same,RUligand,[2]; Conc 176 µM,79 RU
same,RUligand,[2]; Conc 352 µM,90 RU
same,RUligand,[2]; Conc 704 µM,118 RU
same,kd,[2],8.9e-07 s⁻¹
same,"Ka, fold higher than lucanthone",[2]; hycanthone vs lucanthone,about 8 fold
same,"kd of full length APE1, fold lower than for lucanthone",[2]; hycanthone vs lucanthone,~100 fold
same,kon,[2],90 M⁻¹ s⁻¹
"CCN(CC)CCNc1ccc(C)c2sc3ccccc3c(=O)c12 [lucanthone, 1-[2-diethylaminoethylamino]-4-methylthioxanthen-9-one]",Conformational change of E.coli Nfo (CD),[3],little conformational changes
same,Conformational change of wild type and D210N active site mutant APE1 (CD),[4],able to induce conformational changes
same,Conformational change of double mutant F266A/W280A (CD),[5],almost no conformational change
same,Cleavage of APE1 (25 kDa fragment),[1],induce cleavage of APE1
same,De novo APE1 synthesis,[1]; 10 µg/ml cycloheximide 4 h pretreatment,not affected significantly
same,APE1:drug stoichiometry,[2],may have been lower
same,pKd,[2],7.05
same,RUmax,[2],91 RU
same,RUligand,[2]; Conc 20 µM,−82 RU
same,RUligand,[2]; Conc 40 µM,−26 RU
same,RUligand,[2]; Conc 80 µM,2.5 RU
same,RUligand,[2]; Conc 160 µM,77 RU
same,RUligand,[2]; Conc 320 µM,94 RU
same,RUligand,[2]; Conc 640 µM,62 RU
same,kd,[2],7.76e-05 s⁻¹
same,kon,[2],878 M⁻¹ s⁻¹
